Read-outs that look alike come from different tables or passages of the source.
Key:
human H3 receptor = molecular target: T1, human H3 receptor (Homo sapiens, UniProt Q9Y5N1); assay: Human H3 radioligand binding ([3H]-N-alpha-methylhistamine, SPA)
T1 construct: expressed in transfected cells
Summary of the method: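 Compounds (0.01 nM-30 μM) competed with approximately 1 nM [3H]-N-alpha-methylhistamine for human H3 receptor in membranes of stably transfected CHO cells, 10 μg protein per well, in Tris-HCl pH 7.4/MgCl2/BSA buffer for 4 h at room temperature. Bound radioligand measured by scintillation proximity; 10 μM clobenpropit gave non-specific binding.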

[1] = molecular target: T2, rat histamine H3 receptor (Rattus norvegicus, UniProt Q9QYN8); assay: Rat H3 radioligand binding ([3H]-N-alpha-methylhistamine, SPA)
T2 construct: encoding the entire 445-amino-acid rat histamine H3 receptor; expressed in transfected cells; membrane preparation
Summary of the method: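 SPA-bead binding assay using [3H]-N-alpha-methylhistamine (approximately 1 nM final) with test compounds from 0.01 nM to 30 μM. Rat H3 receptor membranes came from stably transfected CHO-A3 cells; incubation ran 4 h at room temperature, in the dark, in Tris pH 7.4 buffer with MgCl2 and BSA. Clobenpropit (10 μM) gave non-specific binding.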

[2] = Table A, human H3 binding, read-out: Human Ki
[3] = Table A, rat H3 binding, read-out: Rat Ki
[4] = Human H3 binding, Table B, Examples 136-362, read-out: hum H3 binding Ki
[5] = Rat H3 binding, Table B, Examples 136-362, read-out: rat H3 binding Ki
[6] = human H3 binding, Table D, read-out: Human H3 Ki
[7] = rat H3 binding, Table D, read-out: Rat H3 Ki
[8] = Table C, human H3 binding, read-out: Human H3 Ki
[9] = Table C, rat H3 binding, read-out: Rat H3 Ki

T2 sequence (Q9QYN8 whole entry): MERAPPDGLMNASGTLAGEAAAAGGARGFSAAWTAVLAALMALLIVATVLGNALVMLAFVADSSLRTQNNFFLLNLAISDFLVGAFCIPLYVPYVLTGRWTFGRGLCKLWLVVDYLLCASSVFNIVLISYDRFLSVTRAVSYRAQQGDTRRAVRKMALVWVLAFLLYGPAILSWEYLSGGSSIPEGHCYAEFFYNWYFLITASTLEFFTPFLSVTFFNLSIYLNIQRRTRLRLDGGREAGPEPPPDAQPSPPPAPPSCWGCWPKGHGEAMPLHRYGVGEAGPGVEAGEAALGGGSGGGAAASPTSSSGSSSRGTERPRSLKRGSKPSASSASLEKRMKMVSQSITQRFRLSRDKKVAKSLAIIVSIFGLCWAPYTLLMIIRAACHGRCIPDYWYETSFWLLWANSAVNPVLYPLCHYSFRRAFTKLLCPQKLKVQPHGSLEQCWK
T1 sequence (Q9Y5N1 whole entry): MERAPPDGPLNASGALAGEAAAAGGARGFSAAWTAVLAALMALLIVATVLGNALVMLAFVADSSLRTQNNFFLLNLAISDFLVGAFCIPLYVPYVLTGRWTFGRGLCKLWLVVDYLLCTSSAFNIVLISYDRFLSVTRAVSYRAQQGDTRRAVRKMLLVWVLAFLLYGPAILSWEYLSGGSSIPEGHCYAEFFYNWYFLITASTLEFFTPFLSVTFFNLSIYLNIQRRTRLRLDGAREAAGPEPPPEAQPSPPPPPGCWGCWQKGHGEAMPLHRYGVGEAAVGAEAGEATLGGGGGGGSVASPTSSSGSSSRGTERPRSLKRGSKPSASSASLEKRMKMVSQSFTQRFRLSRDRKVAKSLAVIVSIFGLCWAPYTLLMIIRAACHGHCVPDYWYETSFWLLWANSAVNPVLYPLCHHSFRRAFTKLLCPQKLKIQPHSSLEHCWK

Structure (SMILES)	melting point [°C]	Ki (human H3 receptor; [4]) [nM]	Ki [1, 5] [nM]	further results
c1ncc(COc2ccc3c(c2)CCC2(CCN(C4CCC4)CC2)O3)o1 [Example 325]	45 to 47	< 200	< 200	–
COCCNC(=O)c1ccc(-c2ccc3c(c2)CCC2(CCN(C4CCC4)CC2)O3)cc1C [Example 233]	59.8 to 60.9	< 200	< 200	–
O[C@H]1CCN(c2ccc3c(c2)COC2(CCN(C4CCC4)CC2)O3)C1 [Example 354]	72.6 to 74.9	< 200	< 200	–
CS(=O)(=O)N1CCC(COc2ccc3c(c2)CCC2(CCN(C4CCC4)CC2)O3)CC1 [Example 335]	159 to 161	< 200	< 200	–
CC(C)(C)OC(=O)N1CC[C@@H](Oc2ccc3c(c2)CCC2(CCN(C4CCC4)CC2)O3)C1 [Example 442]	280 to 283	–	–	Ki (human H3 receptor; [8]): < 200 nM; Ki [1, 9]: < 200 nM
O=C(Nc1ccc2c(c1)COC1(CCN(C3CCC3)CC1)O2)c1ccncc1 [Example 150]	180 to 182	< 200	< 200	–
c1cnc(N2CCN(c3ccc4c(c3)CCC3(CCN(C5CCC5)CC3)O4)CC2)cn1 [Example 370]	168 to 169	–	–	Ki (human H3 receptor; [8]): < 200 nM; Ki [1, 9]: < 200 nM
CC(C)S(=O)(=O)N1CCC(Oc2ccc3c(c2)CCC2(CCN(C4CCC4)CC2)O3)CC1 [Example 440]	233 to 235	–	–	Ki (human H3 receptor): < 200 nM; Ki [1]: < 200 nM
COC[C@H](C)NC(=O)c1ccc(-c2ccc3c(c2)CCC2(CCN(C4CCC4)CC2)O3)cc1Cl [Example 591]	120 to 122	–	–	Ki (human H3 receptor; [6]): < 200 nM; Ki [1, 7]: < 200 nM
O=C1N(CCO)CCN1c1ccc2c(c1)COC1(CCN(C3CCC3)CC1)O2 [Example 146]	152 to 155	< 200	< 200	–
OCC1CCN(c2ccc3c(c2)COC2(CCN(C4CCC4)CC2)O3)CC1 [Example 601]	88.9 to 91.4	–	–	Ki (human H3 receptor; [6]): < 200 nM; Ki [1, 7]: < 200 nM
O=C(C1CC1)N1CCN(c2ccc3c(c2)CCC2(CCN(C4CCC4)CC2)O3)CC1 [Example 376]	169 to 171	–	–	Ki (human H3 receptor; [8]): < 200 nM; Ki [1, 9]: < 200 nM
CNC(=O)c1ccc(N2CCN(c3ccc4c(c3)CCC3(CCN(C5CCC5)CC3)O4)CC2)nc1 [Example 409]	297 to 299	–	–	Ki (human H3 receptor; [8]): < 200 nM; Ki [1, 9]: < 200 nM
O=C(N1CCCC1)N1CCN(c2ccc3c(c2)COC2(CCN(C4CCC4)CC2)O3)CC1 [Example 307]	132 to 135	< 200	< 200	–
Cn1cc2c(n1)CCC(c1ccc3c(c1)COC1(CCN(C4CCC4)CC1)O3)C2 (stereo not drawn) [Example 469]	138 to 140	–	–	Ki (human H3 receptor; read-out: Human H3 Ki): < 200 nM; Ki ([1]; read-out: Rat H3 kI): < 200 nM
CN(C)C(=O)C1CCCN(c2ccc3c(c2)COC2(CCN(C4CCC4)CC2)O3)C1 (stereo not drawn) [Example 612]	51.2 to 54.2	–	–	Ki (human H3 receptor; [6]): < 200 nM; Ki [1, 7]: < 200 nM

Structure (SMILES)	melting point [°C]	Ki (human H3 receptor; [4]) [nM]	Ki [1, 5] [nM]	further results
OC1(c2ccc3c(c2)COC2(CCN(C4CCC4)CC2)O3)CCC2(CC1)OCCO2 [Example 492]	191 to 192	–	–	Ki (human H3 receptor; read-out: Human H3 Ki): < 200 nM; Ki ([1]; read-out: Rat H3 kI): < 200 nM
CS(=O)(=O)c1ccc(COc2ccc3c(c2)CCC2(CCN(C4CCC4)CC2)O3)cc1 [Example 617]	142 to 146	–	–	Ki (human H3 receptor; [6]): < 200 nM; Ki [1, 7]: < 200 nM
N#Cc1cnc(Nc2ccc3c(c2)COC2(CCN(C4CCC4)CC2)O3)s1 [Example 128]	217 to 218	–	–	Ki (human H3 receptor; [2]): < 200 nM; Ki [1, 3]: < 200 nM
Cc1n[nH]c(C)c1-c1ccc2c(c1)CCC1(CCN(C3CCC3)CC1)O2 [Example 167]	86 to 88	< 200	< 200	–
c1ccc(COc2cc(-c3ccc4c(c3)COC3(CCN(C5CCC5)CC3)O4)ccn2)cc1 [Example 548]	120 to 125	–	–	Ki (human H3 receptor; read-out: Human H3 Ki): < 200 nM; Ki ([1]; read-out: Rat H3 kI): < 200 nM
CN(C)C(=O)c1cccc(COc2ccc3c(c2)CCC2(CCN(C4CCC4)CC2)O3)c1 [Example 602]	183 to 185	–	–	Ki (human H3 receptor; [6]): < 200 nM; Ki [1, 7]: < 200 nM
O=c1cc(COc2ccc3c(c2)CCC2(CCN(C4CCC4)CC2)O3)cc[nH]1 [Example 663]	205 to 206	–	–	Ki (human H3 receptor; [6]): < 200 nM; Ki [1, 7]: < 200 nM
O=C(c1ccc(Nc2ccc3c(c2)COC2(CCN(C4CCC4)CC2)O3)cc1)N1CCOCC1 [Example 172]	79 to 84	< 200	< 200	–
OC(c1ccc2c(c1)COC1(CCN(C3CCC3)CC1)O2)c1cncs1 (stereo not drawn) [Example 669]	72 to 75	–	–	Ki (human H3 receptor; [6]): < 200 nM; Ki [1, 7]: < 200 nM
Cc1cccc(Oc2ccc3c(c2)CCC2(CCN(C4CCC4)CC2)O3)n1 [Example 268]	213 to 215	< 200	< 200	–
COc1ccc(-c2ccc3c(c2)COC2(CCN(C4CC(C(=O)O)C4)CC2)O3)cn1 (stereo not drawn) [Example 734]	260 to 262	–	–	Ki (human H3 receptor; [6]): > 1000 nM; Ki [1, 7]: > 1000 nM
O=C(Nc1ccc2c(c1)COC1(CCN(C3CCC3)CC1)O2)c1ccnnc1 [Example 203]	206 to 207	< 200	< 200	–
CC(=O)N(Cc1ccccc1)c1ccc2c(c1)COC1(CCN(C3CCC3)CC1)O2 [Example 290]	115 to 117	< 200	< 200	–
O=C1N(c2ccc(C(F)(F)F)nc2)CCN1c1ccc2c(c1)COC1(CCN(C3CCC3)CC1)O2 [Example 242]	222 to 224	< 200	< 200	–
O=C(Nc1ccc2c(c1)COC1(CCN(C3CCC3)CC1)O2)c1ccccn1 [Example 152]	172 to 174	< 200	< 200	–
O=C(c1ccc(-c2ccc3c(c2)CCC2(CCN(C4CCC4)CC2)O3)cc1)N1CC[C@H](O)C1 [Example 182]	193 to 195	< 200	< 200	–

Second part, led by results:

melting point [°C]	Ki (human H3 receptor; [4]) [nM]	Ki [1, 5] [nM]	Structure (SMILES)	further results
198 to 199	–	–	CNC(=O)c1ccc(-c2ccc3c(c2)COC2(CCN(C4CCC4)CC2)O3)cc1 [Example 33]	Ki (human H3 receptor; [2]): < 200 nM; Ki [1, 3]: < 200 nM
140 to 143	< 200	< 200	Cc1nn(C)c(C)c1-c1ccc2c(c1)COC1(CCN(C3CCC3)CC1)O2 [Example 199]	–
212 to 214	–	–	COCc1cc(-c2ccc3c(c2)COC2(CCN(C4CCC4)CC2)O3)c[nH]c1=O [Example 805]	Ki (human H3 receptor; [6]): < 200 nM; Ki [1, 7]: < 200 nM
85 to 88	–	–	CCSc1c[nH]c(=O)cc1-c1ccc2c(c1)COC1(CCN(C3CCC3)CC1)O2 [Example 765]	Ki (human H3 receptor; [6]): < 200 nM; Ki [1, 7]: < 200 nM
127.8 to 128.6	–	–	c1ccc(-c2ccc3c(c2)COC2(CCN(C4CCC4)CC2)O3)cc1 [Example 39]	Ki (human H3 receptor; [2]): < 200 nM; Ki [1, 3]: < 200 nM
70 to 72	–	–	COc1cc(-c2ccc3c(c2)COC2(CCN(C4CCC4)CC2)O3)cn(C)c1=O [Example 761]	Ki (human H3 receptor; [6]): < 200 nM; Ki [1, 7]: < 200 nM
96 to 98	–	–	COc1ccc(-c2cc3c(cc2C)OC2(CCN(C4CCC4)CC2)OC3)cn1 [Example 544]	Ki (human H3 receptor; read-out: Human H3 Ki): < 200 nM; Ki ([1]; read-out: Rat H3 kI): < 200 nM
131 to 134	–	–	OCc1ccc(-c2ccc3c(c2)COC2(CCN(C4CCC4)CC2)O3)cc1 [Example 44]	Ki (human H3 receptor; [2]): < 200 nM; Ki [1, 3]: < 200 nM
211 to 213	–	–	CNC(=O)c1ccc(-c2ccc3c(c2)COC2(CCN(C4CCC4)CC2)O3)c(Cl)c1 [Example 685]	Ki (human H3 receptor; [6]): < 200 nM; Ki [1, 7]: < 200 nM
100 to 102	–	–	COc1ccnc(-c2ccc3c(c2)COC2(CCN(C4CCC4)CC2)O3)n1 [Example 483]	Ki (human H3 receptor; read-out: Human H3 Ki): < 200 nM; Ki ([1]; read-out: Rat H3 kI): < 200 nM
166 to 168	< 200	< 200	O=C(NCCO)c1ccc(-c2ccc3c(c2)COC2(CCN(C4CCC4)CC2)O3)cc1F [Example 163]	–
58 to 62	–	–	OC(c1ccc(F)cc1)c1ccc2c(c1)COC1(CCN(C3CCC3)CC1)O2 (stereo not drawn) [Example 513]	Ki (human H3 receptor; read-out: Human H3 Ki): < 200 nM; Ki ([1]; read-out: Rat H3 kI): < 200 nM
211 to 213	–	–	O=c1cc(-c2ccc3c(c2)COC2(CCN(C4CCC4)CC2)O3)cc[nH]1 [Example 475]	Ki (human H3 receptor; read-out: Human H3 Ki): < 200 nM; Ki ([1]; read-out: Rat H3 kI): < 200 nM
210 to 211	–	–	CNC(=O)c1ccc(-c2ccc3c(c2)COC2(CCN(C4CCC4)CC2)O3)c(C)c1 [Example 681]	Ki (human H3 receptor; [6]): < 200 nM; Ki [1, 7]: < 200 nM
140 to 141	–	–	CCN(C)C(=O)c1ccc(-c2ccc3c(c2)COC2(CCN(C4CCC4)CC2)O3)cc1 [Example 30]	Ki (human H3 receptor; [2]): < 200 nM; Ki [1, 3]: < 200 nM
141 to 142	–	–	COCCn1cc(-c2ccc3c(c2)COC2(CCN(C4CCC4)CC2)O3)ccc1=O [Example 708]	Ki (human H3 receptor; [6]): < 200 nM; Ki [1, 7]: < 200 nM
173 to 174	200 to 1000	200 to 1000	O=c1cccnn1-c1ccc2c(c1)COC1(CCN(C3CCC3)CC1)O2 [Example 228]	–

Source: patent US8513232B2, “Substituted spirocyclic piperidine derivatives as histamine-3 (H3) receptor ligands” (Cephalon, Inc., priority 2008, dated 2013)
